Measurements published in patent EP0802730B1, “PESTICIDAL COMPOUNDS” (BTG INTERNATIONAL LIMITED, priority 1995, dated 1996).
In brackets after ≈: the same amount, converted by molar mass. Read-outs that look alike come from different tables or passages of the source.

Key:
Aspergillus niger = assay: Fungitoxicity in vitro on potato dextrose agar; type: cell-based; conditions: A. niger, 4 days
Rhizoctonia solani = assay: Fungitoxicity in vitro on potato dextrose agar; type: cell-based; conditions: R. solani, 4 days
[1] = test system: Pyricularia oryzae (=Magnaporthe grisea); type: cell-based; conditions: P. oryzae, 7 days
[2] = test system: Myzus persicae, susceptible strain (US1L); assay: Aphid dip test, susceptible strain; type: in vivo
Description: Activity against resistant (R) and susceptible (S) strains of aphid (Myzus persicae) was assessed using the following method.
Entrapment rings of fluon were painted halfway up the inside of 4 cm lengths of glass tubing (1.5 cm diameter), and squares of insect-proof gauze were attached to one end of each tube by elastic bands. Fifteen apterous adults were then gently transferred into the tubes using a sable-hair brush, and the tube sealed with a second gauze square.
Tubes containing aphids were dipped into insecticide solutions for 10 seconds, dried on blotting paper, and then inverted and tapped to cause treated aphids to fall to the unimmersed end of each tube. Handling mortality (usually zero or very slight) was scored after 1 hour, when aphids were transferred onto chinese cabbage leaf-discs (35 mm diameter) on an agar bed (25 mm in depth) in disposible plastic containers (30 mm high) and confined by applying a ring of fluon to the exposed lip of the container. Containers were store upright, without lids, in a constant environment facility maintained at 25°C under continuous room lighting. Mortality was assessed at 24, 48 and 72 hours. Two replicates of 15 aphids each were used at each dose rate and 5 or 6 dose rates were used per compound under test.
The test was carried out using a susceptible strain of aphids (US1L) collected in the field in East Anglia, UK and an extremely resistant strain of aphids (794Jz) (R3 esterase, sensitive AChE) collected from glasshouses in the UK.
The values given are % mortality corrected for control data. The control comprised the test solution without active ingredient.

[3] = test system: Mustard beetles (PC) (Phaedon cochleariae Fab); type: in vivo; conditions: NA = lack of detectable activity; for PC (LD50): 1 µl acetone drop applied ventrally to adults, kill at 48 hours; for PC LD50 (µg/insect): Tables 10, 13, 14
Description: A one microlitre drop of an acetone solution of the test compound was applied ventrally to adult mustard beetles using a micro drop applicator. The treated insects were maintained for 48 hours after which time kill was assessed. Two replicates each of 20 to 25 mustard beetles were used at each dose level and 5 dose levels were treated comparably. LD50 values were calculated as for houseflies.

[4] = test system: Houseflies (MD) (Musca domestica); type: in vivo; conditions: for MD (LD50): topical 1 µl drop in acetone on female flies, kill assessed 24 and 48 hours; for MD LD50 (µg/insect): Tables 10, 13, 14, NA = lack of detectable activity
Description: Female flies were treated on the thorax with a one microlitre drop of test compound dissolved in acetone. Two replicates of 15 flies were used at each dose rate and 6 dose rates were used per compound under test. After treatment, the flies were maintained at a temperature of 20° ± 1°C and kill was assessed 24 and 48 hours after treatment. LD50 values were calculated in micrograms of test compound per fly (see Sawicki et al., Bulletin of the World Health Organisation, 35, 893 (1966) and Sawicki et al., Entomologia and Exp. Appli 10, 253, (1967).

[5] = test system: Whitefly (BT) (Bemisia tabaci), susceptible strain (SUD-S); assay: Whitefly residual film vial test, susceptible strain SUD-S; type: in vivo
Description: (§1) Acetone solutions (0.100 ml) of the test compounds were placed in 10 ml glass vials and evaporated with rotation to deposit a film of the compound. Thirty adult whiteflies were placed inside the vial, then after 60 minutes, the treated insects were transferred onto untreated cotton leaf discs which were kept moist on a bed of agar gel. The temperature was maintained at 25°C and mortality assessed after 48 hours. Three replicates were used at each of 5 to 7 dose levels per compound.

[6] = test system: Mites (TU) (Tetranychus urticae), susceptible strain (GSS); assay: Mite immersion test, susceptible strain GSS; type: in vivo
Description: (§2) 25 adult female mites were immersed in 35 µl of a solution of the test compound in a 1:4 acetone-water mixture for 30 seconds. The treated insects were maintained at 21° ± 2°C and kill was assessed 72 hours after treatment. […] Three replicates of 25 mites each were used at each dose rate and 5 or 6 dose rates were used per compound under test. LC50 values were calculated in ppm of the solution of the test compound per insect. The test was carried out using a susceptible strain of mites (GSS) supplied by Schering, AG, Berlin.

[7] = test system: resistant mites (TU) (Tetranychus urticae), NYR-Bif-1000; assay: Mite immersion test, bifenthrin-resistant strain; type: in vivo; conditions: 72 h, read-out: TU (NYR-Bif-1000) (LC50)
Description: as §2
The test of Example 16 (TU(GSS)) was repeated using a strain of mites which is resistant to bifenthrin (NYR-Bif-1000). The NYR-Bif-1000 strain was provided by the Department of Entomology, Cornell University, New York.

[8] = test system: Diamond-back moth (PX) (Plutella xylostella); assay: Diamond-back moth larvae topical test (failure to pupate); type: in vivo; conditions: fifth instar larvae, 0.5 µl drop; failure to pupate 5 days later
Description: Fifth instar larvae were treated with a 0.5 µl drop of test compound in acetone. Three replicates of 10 larvae each were used at each dose rate and 5 dose rates were used per compound under test. After treatment, the larvae were maintained at about 22°C, and kill was assessed as failure to pupate 5 days later. LD50 values were calculated as for houseflies.

[9] = test system: resistant whitefly (BT) (Bemisia tabaci), Ned 7; assay: Whitefly vial test, resistant strain Ned 7; type: in vivo; conditions: 48 h, read-out: BT (Ned 7) (LC50)
Description: as §1, with “per compound. LC50 values (ppm solution) were calculated by using a computer software package ("Polo-PC available from LeOra Software, Berkeley, California) (See M.R. Cahill and B. Hackett in Proceedings Brighton Crop Protection Conference, 1992). The test was carried out using a susceptible strain of whitefly (SUD-S) which was collected in Sudan in 1978 from cotton.” for “per compound.”
The test of Example 16 (BT (SUD-S)) was repeated using a resistant strain of whitefly (Ned 7). The Ned 7 strain was collected in the Netherlands in April, 1993 from hibiscus by J. Fransen and is highly resistant to organophosphate and carbamate insecticides and the insect growth regulator buprofezin.

[10] = strain S, read-out: % mortality corrected for control data
[11] = ppm solution of test compound, 60 minutes film exposure, mortality after 48 hours, read-out: BT(SUD-S) (LC50)
[12] = ppm solution of test compound, 30 seconds immersion, kill at 72 hours, read-out: TU(GSS) (LC50)
[13] = 48 h, Tables 10, 13, 14, susceptible strain, NA = lack of detectable activity, read-out: BT LC50 (ppm/insect)
[14] = 72 h, Tables 10, 13, 14, susceptible strain, NA = lack of detectable activity, read-out: TU LC50 (ppm/insect)
[15] = strain S, 100 PPM, read-out: % mortality corrected for control data

CCC(C)(C)C1=C(OC(C)=O)C(=O)c2ccccc2C1=O [Example 2, 2-(1,1-dimethylpropyl)-3-ethanoyloxy-naphthalene-1,4-dione]
% inhibition of growth in colony diameter in agar plates, Activity at 100 mg 1^-1 (Aspergillus niger): 38% | % inhibition of growth in colony diameter in agar plates, Activity at 100 mg 1^-1 (Rhizoctonia solani): 81% | % inhibition of growth in colony diameter in agar plates, Activity at 100 mg 1^-1 [1]: 89% | mortality at 40 ppm ([2]; strain S, 40 PPM, read-out: % mortality corrected for control data): 20% | mortality at 250 ppm [2, 10]: 27% | PC (LD50) [3]: c. 6.0 µg/insect | MD (LD50) [4]: < 10 µg/insect | LC50 [5, 11]: 4.8 µg/mL (≈ 16.8 µM) | LC50 [6, 12]: 64 µg/mL (≈ 224 µM) | LC50 [7]: 83 µg/mL (≈ 290 µM) | PX (LD50) [8]: c. 10 µg/insect

C=CC(C)(C)C1=C(OC(=O)CCCCCCCCC)C(=O)c2ccccc2C1=O [Example 8]
PC (LD50) [3]: c. 8.0 µg/insect | LC50 [6, 12]: 630 µg/mL (≈ 1590 µM) | PX (LD50) [8]: c. 0.1 µg/insect

CCCCCCCCCCCCC1=C(OC(C)=O)C(=O)c2ccccc2C1=O [Compound A, 2-n-dodecyl-3-ethanoyloxynaphthalene-1,4-dione, reference compound]
PC (LD50) [3]: 0.36 µg/insect | MD (LD50) [4]: >> 20 µg/insect | LC50 [5, 11]: 82 µg/mL (≈ 213 µM) | LC50 [6, 12]: 64 µg/mL (≈ 166 µM) | LC50 [9]: 470 µg/mL (≈ 1220 µM)

COC(=O)Nc1nc2ccccc2[nH]1 [Carbendazim, carbendazim, reference compound]
% inhibition of growth in colony diameter in agar plates, Activity at 1 mg 1^-1 (Rhizoctonia solani; 1 mg 1^-1): 3.3% | % inhibition of growth in colony diameter in agar plates, Activity at 5 mg 1^-1 (Rhizoctonia solani; 5 mg 1^-1): 82.4% | % inhibition of growth in colony diameter in agar plates, Activity at 1 mg 1^-1 ([1]; 1 mg 1^-1): 14.7% | % inhibition of growth in colony diameter in agar plates, Activity at 5 mg 1^-1 ([1]; 5 mg 1^-1): 99.8%

C=CC(C)(C)C1=C(OC(=O)CCC)C(=O)c2ccccc2C1=O [Example 5]
PC (LD50) [3]: 6.9 µg/insect | LC50 [5, 11]: 13 µg/mL (≈ 41.6 µM) | LC50 [6, 12]: 84 µg/mL (≈ 269 µM) | LC50 ([9]; resistant strain Ned 7, ppm solution of test compound): 21 µg/mL (≈ 67.2 µM)

CCCN(CCOc1c(Cl)cc(Cl)cc1Cl)C(=O)n1ccnc1 [Prochloraz, prochloraz, reference compound]
% inhibition of growth in colony diameter in agar plates, Activity at 1 mg 1^-1 (Aspergillus niger; 1 mg 1^-1): 97.8%

CC1(C2=C(O)C(=O)c3ccccc3C2=O)C=CCCC1 (centres unmarked) [Example 31]
mortality at 100 ppm ([2]; read-out: MP % kill 100 ppm): 5% | PC LD50 (µg/insect) [3]: 5 µg/insect | MD LD50 (µg/insect) [4]: 6 µg/insect | LC50 [5, 13]: 4.7 µg/mL (≈ 17.5 µM) | LC50 [6, 14]: ~50 µg/mL (≈ 186 µM)

CC(C)(C)C1=C(O)C(=O)c2ccccc2C1=O [Example 3, 2-(t-butyl)-3-hydroxy-naphthalene-1,4-dione]
% inhibition of growth in colony diameter in agar plates, Activity at 100 mg 1^-1 (Aspergillus niger): 61% | % inhibition of growth in colony diameter in agar plates, Activity at 100 mg 1^-1 (Rhizoctonia solani): 92% | % inhibition of growth in colony diameter in agar plates, Activity at 100 mg 1^-1 [1]: 100% | mortality at 100 ppm [2, 15]: 27% | mortality at 250 ppm [2, 10]: 87% | PC (LD50) [3]: c. 6.0 µg/insect | MD (LD50) [4]: c. 2.5 µg/insect | LC50 [5, 11]: 8 µg/mL (≈ 34.7 µM) | LC50 [6, 12]: 81 µg/mL (≈ 352 µM) | PX (LD50) [8]: c. 8.0 µg/insect

CCC(C)(C)C1=C(O)C(=O)c2ccccc2C1=O [Example 1, 2-(1,1-dimethylpropyl)-3-hydroxynaphthalene-1,4-dione]
% inhibition of growth in colony diameter in agar plates, Activity at 100 mg 1^-1 (Aspergillus niger): 63% | % inhibition of growth in colony diameter in agar plates, Activity at 100 mg 1^-1 (Rhizoctonia solani): 95% | % inhibition of growth in colony diameter in agar plates, Activity at 100 mg 1^-1 [1]: 100% | mortality at 100 ppm [2, 15]: 11% | mortality at 250 ppm [2, 10]: 26% | PC (LD50) [3]: c. 10 µg/insect | MD (LD50) [4]: < 10 µg/insect | LC50 [5, 11]: 19 µg/mL (≈ 77.8 µM) | LC50 [6, 12]: 39 µg/mL (≈ 160 µM) | LC50 [7]: 84 µg/mL (≈ 344 µM)

CC(=O)OC1=C(CCC(C)(C)C)C(=O)c2ccccc2C1=O [Example 47, 2-ethanoyloxy-3-(3,3-dimethylbutyl)-naphthalene-1,4-dione]
mortality at 100 ppm ([2]; read-out: MP % kill 100 ppm): ~100% | PC LD50 (µg/insect) [3]: c1 µg/insect | MD LD50 (µg/insect) [4]: 2.2 µg/insect | LC50 [5, 13]: 2.1 µg/mL (≈ 6.99 µM) | LC50 [6, 14]: ~20 µg/mL (≈ 66.6 µM)

CC(=O)OC1=C(CC2(C)CCCCC2)C(=O)c2ccccc2C1=O [Example 33, 2-acetoxy-3-((1'-methylcyclohexyl)-methyl)-naphthalene-1,4-dione]
mortality at 100 ppm ([2]; read-out: MP % kill 100 ppm): 30% | PC LD50 (µg/insect) [3]: 2.8 µg/insect | MD LD50 (µg/insect) [4]: 5.7 µg/insect | LC50 [5, 13]: 5.1 µg/mL (≈ 15.6 µM) | LC50 [6, 14]: 2.3 µg/mL (≈ 7.05 µM)

C=CC(C)(C)C1=C(OCc2ccccc2)C(=O)c2ccccc2C1=O [Example 13]
PC (LD50) [3]: > 20 µg/insect | MD (LD50) [4]: > 20 µg/insect | LC50 [5, 11]: > 1000 µg/mL | LC50 [6, 12]: > 1000 µg/mL | PX (LD50) [8]: c. 8.0 µg/insect
